{"source": "patent US20060069132A1", "about": "“Azolecarboxamide herbicides” (priority 2004, published 2006)", "key": {"ducksalad": {"system": "ducksalad", "assay": "Test B flooded paddy test", "format": "in vivo, Heteranthera limosa", "conditions": "1000 g ai/ha, scale 0 to 100 (0 no effect, 100 complete control)", "in_short": "(§1)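 Greenhouse test; postemergence application to plants at 1–4 leaves (2–18 cm); paddy species at 2 leaves; evaluated visually vs controls at 13–15 days; scale 0–100 (100 = complete control).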"}, "wild oat": {"system": "wild oat", "assay": "Test B postemergence herbicide test", "format": "in vivo, Avena fatua", "conditions": "postemergence", "in_short": "(§2)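 Postemergence plants were sprayed with formulated test chemicals at 2 to 18 cm height (1- to 4-leaf stage); paddy species were grown to the 2-leaf stage. After 13 to 15 days in a greenhouse, injury was rated visually against untreated controls on a 0–100 scale (0 = no effect, 100 = complete control).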"}, "wheat": {"system": "wheat", "assay": "Test B postemergence herbicide test", "format": "in vivo, Triticum aestivum", "design": "key to Wheat plant response rating: 0 = no effect, 100 = complete control", "conditions": "postemergence", "in_short": "as §2"}, "velvetleaf": {"system": "velvetleaf", "assay": "Test B pre-/postemergence herbicide test", "format": "in vivo, Abutilon theophrasti", "conditions": "for Velvetleaf plant response rating: postemergence", "in_short": "(§3)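 Evaluation is visual, comparing treated with control plants on a scale where 0 means no effect and 100 means full control. Treatments were preemergence, or postemergence on seedlings 2–18 cm tall, and held 13–15 days in the greenhouse.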"}, "rice [1]": {"system": "rice", "assay": "Test B pre-/postemergence herbicide test", "format": "in vivo, Oryza sativa", "conditions": "0 = no effect, 100 = complete control, preemergence", "in_short": "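Plants compared with untreated controls 13–15 days post-treatment and given a visual 0–100 injury score. Applications: preemergence to seeds; postemergence at 1- to 4-leaf (2–18 cm); paddy species flooded, 2-leaf stage. Vehicle non-phytotoxic, surfactant included.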"}, "[2]": {"system": "small flower umbrella sedge", "assay": "Test B flooded paddy test", "format": "in vivo, Cyperus difformis", "conditions": "1000 g ai/ha, scale 0 to 100 (0 no effect, 100 complete control)", "in_short": "as §1"}, "lambsquarters": {"system": "lambsquarters", "assay": "Test B pre-/postemergence herbicide test", "format": "in vivo, Chenopodium album", "conditions": "for Lambsquarters plant response rating: postemergence", "in_short": "as §3"}, "blackgrass": {"system": "blackgrass", "assay": "Test B postemergence herbicide test", "format": "in vivo, Alopecurus myosuroides", "conditions": "postemergence, visual rating, scale 0 (no effect) to 100 (complete control)", "in_short": "as §1"}, "pigweed": {"system": "pigweed", "assay": "Test B pre-/postemergence herbicide test", "format": "in vivo, Amaranthus retroflexus", "conditions": "for Pigweed plant response rating: postemergence", "in_short": "as §3"}, "rice [3]": {"system": "rice", "assay": "Test B flooded paddy test", "format": "in vivo, Oryza sativa", "conditions": "1000 g ai/ha, scale 0 to 100 (0 no effect, 100 complete control)", "in_short": "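Each value is a visual 0–100 response rating taken against controls 13 to 15 days after treatment in the greenhouse. Plants received formulated chemical postemergence at the 1- to 4-leaf stage or, in flooded paddy, at the 2-leaf stage.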"}, "barnyardgrass [4]": {"system": "barnyardgrass", "assay": "Test B flooded paddy test", "format": "in vivo, Echinochloa crus-galli", "conditions": "1000 g ai/ha, scale 0 to 100 (0 no effect, 100 complete control)", "in_short": "as §1"}, "Surinam grass": {"system": "Surinam grass", "assay": "Test B pre-/postemergence herbicide test", "format": "in vivo, Urochloa decumbens", "conditions": "for Surinam Grass plant response rating: postemergence", "in_short": "as §3"}, "giant foxtail": {"system": "giant foxtail", "assay": "Test B pre-/postemergence herbicide test", "format": "in vivo, Setaria faberi", "conditions": "for Foxtail, Giant plant response rating: postemergence", "in_short": "as §3"}, "barnyardgrass [5]": {"system": "barnyardgrass", "assay": "Test B pre-/postemergence herbicide test", "format": "in vivo, Echinochloa crus-galli", "conditions": "for Barnyardgrass plant response rating: postemergence, scale 0 (no effect) to 100 (complete control)", "in_short": "(§4)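 Greenhouse pot assay with simultaneous preemergence (treated seed) and postemergence (2–18 cm seedlings) applications of surfactant-containing, non-phytotoxic solvent formulations. Response scored visually 13–15 days later on a 0–100 scale, 100 meaning complete control.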"}, "large crabgrass": {"system": "large crabgrass", "assay": "Test B pre-/postemergence herbicide test", "format": "in vivo, Digitaria sanguinalis", "conditions": "postemergence", "in_short": "as §3"}, "morningglory": {"system": "morningglory", "assay": "Test B pre-/postemergence herbicide test", "format": "in vivo, Ipomoea coccinea", "conditions": "for Morningglory plant response rating: postemergence", "in_short": "as §4"}, "corn": {"system": "corn", "assay": "Test B pre-/postemergence herbicide test", "format": "in vivo, Zea mays", "conditions": "for Corn plant response rating: postemergence", "in_short": "as §3"}, "cocklebur": {"system": "cocklebur", "assay": "Test B pre-/postemergence herbicide test", "format": "in vivo, Xanthium strumarium", "conditions": "for Cocklebur plant response rating: postemergence, scale 0 (no effect) to 100 (complete control)", "in_short": "as §4"}, "[6]": {"conditions": "125 g ai/ha, visual rating, scale 0 (no effect) to 100 (complete control)"}, "[7]": {"conditions": "500 g ai/ha, scale 0 to 100, 0 is no effect, 100 is complete control"}, "[8]": {"conditions": "125 g ai/ha, 0 = no effect, 100 = complete control, preemergence"}, "[9]": {"conditions": "500 g ai/ha, visual rating, 0 = no effect, 100 = complete control, preemergence"}}}
{"smiles": "CCn1nc(C(C)(C)C)cc1C(=O)Nc1nc(C(=O)OC)ccc1OC", "note": "[Compound 265]", "values": [{"measurement": "Ducksalad plant response rating", "setting": "ducksalad", "value": 0}, {"measurement": "Oat, Wild plant response rating", "setting": "wild oat; [6]", "value": 0}, {"measurement": "Oat, Wild plant response rating", "setting": "wild oat; [7]", "value": 10}, {"measurement": "Wheat plant response rating", "setting": "wheat; [6]", "value": 0}, {"measurement": "Wheat plant response rating", "setting": "wheat; [7]", "value": 10}, {"measurement": "Velvetleaf plant response rating (0 to 100 scale)", "setting": "velvetleaf; [8]", "value": 0}, {"measurement": "Plant response rating, Velvetleaf", "setting": "velvetleaf; [9]", "value": 10}, {"measurement": "Velvetleaf plant response rating", "setting": "velvetleaf; [6]", "value": 0}, {"measurement": "Velvetleaf plant response rating", "setting": "velvetleaf; [7]", "value": 10}, {"measurement": "Rice plant response rating (0 to 100 scale)", "setting": "rice [1]; 125 g ai/ha", "value": 0}, {"measurement": "Plant response rating, Rice", "setting": "rice [1]; 500 g ai/ha, visual rating", "value": 0}, {"measurement": "Sedge, Umbrella plant response rating", "setting": "[2]", "value": 0}, {"measurement": "Plant response rating, Lambsquarters", "setting": "lambsquarters; [9]", "value": 0}, {"measurement": "Lambsquarters plant response rating", "setting": "lambsquarters; [6]", "value": 0}, {"measurement": "Lambsquarters plant response rating", "setting": "lambsquarters; [7]", "value": 0}, {"measurement": "Blackgrass plant response rating", "setting": "blackgrass; 125 g ai/ha", "value": 0}, {"measurement": "Blackgrass plant response rating", "setting": "blackgrass; 500 g ai/ha", "value": 10}, {"measurement": "Pigweed plant response rating (0 to 100 scale)", "setting": "pigweed; [8]", "value": 0}, {"measurement": "Plant response rating, Pigweed", "setting": "pigweed; [9]", "value": 0}, {"measurement": "Pigweed plant response rating", "setting": "pigweed; [6]", "value": 0}, {"measurement": "Pigweed plant response rating", "setting": "pigweed; [7]", "value": 20}, {"measurement": "Rice plant response rating", "setting": "rice [3]", "value": 0}, {"measurement": "Barnyardgrass plant response rating", "setting": "barnyardgrass [4]", "value": 0}, {"measurement": "Surinam Grass plant response rating (0 to 100 scale)", "setting": "Surinam grass; [8]", "value": 0}, {"measurement": "Plant response rating, Surinam Grass", "setting": "Surinam grass; [9]", "value": 40}, {"measurement": "Surinam Grass plant response rating", "setting": "Surinam grass; [6]", "value": 0}, {"measurement": "Surinam Grass plant response rating", "setting": "Surinam grass; [7]", "value": 0}, {"measurement": "Foxtail, Giant plant response rating (0 to 100 scale)", "setting": "giant foxtail; [8]", "value": 0}, {"measurement": "Plant response rating, Foxtail, Giant", "setting": "giant foxtail; [9]", "value": 50}, {"measurement": "Foxtail, Giant plant response rating", "setting": "giant foxtail; [6]", "value": 0}, {"measurement": "Foxtail, Giant plant response rating", "setting": "giant foxtail; [7]", "value": 0}, {"measurement": "Barnyardgrass plant response rating (0 to 100 scale)", "setting": "barnyardgrass [5]; [8]", "value": 0}, {"measurement": "Plant response rating, Barnyardgrass", "setting": "barnyardgrass [5]; [9]", "value": 0}, {"measurement": "Barnyardgrass plant response rating", "setting": "barnyardgrass [5]; 125 g ai/ha, visual rating", "value": 0}, {"measurement": "Barnyardgrass plant response rating", "setting": "barnyardgrass [5]; 500 g ai/ha, visual rating", "value": 0}, {"measurement": "Crabgrass, Large plant response rating", "setting": "large crabgrass; [6]", "value": 0}, {"measurement": "Crabgrass, Large plant response rating", "setting": "large crabgrass; [7]", "value": 0}, {"measurement": "Morningglory plant response rating (0 to 100 scale)", "setting": "morningglory; [8]", "value": 0}, {"measurement": "Plant response rating, Morningglory", "setting": "morningglory; [9]", "value": 0}, {"measurement": "Morningglory plant response rating", "setting": "morningglory; [6]", "value": 0}, {"measurement": "Morningglory plant response rating", "setting": "morningglory; [7]", "value": 10}, {"measurement": "Corn plant response rating (0 to 100 scale)", "setting": "corn; [8]", "value": 0}, {"measurement": "Plant response rating, Corn", "setting": "corn; [9]", "value": 0}, {"measurement": "Corn plant response rating", "setting": "corn; [6]", "value": 0}, {"measurement": "Corn plant response rating", "setting": "corn; [7]", "value": 10}, {"measurement": "Cocklebur plant response rating (0 to 100 scale)", "setting": "cocklebur; [8]", "value": 0}, {"measurement": "Plant response rating, Cocklebur", "setting": "cocklebur; [9]", "value": 0}, {"measurement": "Cocklebur plant response rating", "setting": "cocklebur; 125 g ai/ha, visual rating", "value": 0}, {"measurement": "Cocklebur plant response rating", "setting": "cocklebur; 500 g ai/ha, visual rating", "value": 0}]}
